Measurements: US11591341B2 (ALIGOS THERAPEUTICS, INC., priority 2019, dated 2023)
pEC50: −log10 of the molar value.

Test system: HBV
Assay: HBV-DNA Antiviral Assay Using HepG2.117 Cells (intracellular HBV DNA by qPCR)
Type: cell-based, hepatitis B virus (genotype D)
Details: Hepatitis B virus, HepG2.117
Outline: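 HepG2.117 cells (genotype D HBV, Tet-off) were induced by doxycycline withdrawal and treated for 3 days with 9 concentrations in 4-fold dilution, 2% DMSO final. Intracellular HBV DNA was measured by qPCR against a standard curve, with ATPlite viability read in parallel. EC50, EC90 and CC50 came from fits against the DMSO control.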

SMILES | pEC50
COc1ccc(-n2c(C(=O)NCc3ccc(F)c(OC)c3)c3n(c2=O)CCN(C(=O)c2ccc(Cl)c(Cl)c2)C3)cc1 [Example 103, 7-(3,4-dichlorobenzoyl)-N-[(4-fluoro-3-methoxy-phenyl)methyl]-2-(4-methoxyphenyl)-3-oxo-6,8-dihydro-5H-imidazo[1,5-a]pyrazine-1-carboxamide] | 5.30 to 6.30
COc1ccc(-n2c(C(=O)NCc3ccc(C(N)=O)cc3)c3n(c2=O)CCN(C(=O)c2ccc(Cl)c(Cl)c2)C3)cc1 [Example 104, N-[(4-carbamoylphenyl)methyl]-7-(3,4-dichlorobenzoyl)-2-(4-methoxyphenyl)-3-oxo-6,8-dihydro-5H-imidazo[1,5-a]pyrazine-1-carboxamide] | < 5.30
COc1ccc(-n2c(C(=O)NCC3CC3)c3n(c2=O)CCN(C(=O)c2ccc(Cl)c(Cl)c2)C3)cc1 [Example 105, N-(cyclopropylmethyl)-7-(3,4-dichlorobenzoyl)-2-(4-methoxyphenyl)-3-oxo-6,8-dihydro-5H-imidazo[1,5-a]pyrazine-1-carboxamide] | < 5.30
COc1ccc(-n2c(C(=O)NC3(CO)CC3)c3n(c2=O)CCN(C(=O)c2ccc(Cl)c(Cl)c2)C3)cc1 [Example 106, 7-(3,4-dichlorobenzoyl)-N-[1-(hydroxymethyl)cyclopropyl]-2-(4-methoxyphenyl)-3-oxo-6,8-dihydro-5H-imidazo[1,5-a]pyrazine-1-carboxamide] | < 5.30
COc1ccc(-n2c(C(=O)NCc3ccc4[nH]ncc4c3)c3n(c2=O)CCN(C(=O)c2ccc(Cl)c(Cl)c2)C3)cc1 [Example 107, 7-(3,4-dichlorobenzoyl)-N-(1H-indazol-5-ylmethyl)-2-(4-methoxyphenyl)-3-oxo-6,8-dihydro-5H-imidazo[1,5-a]pyrazine-1-carboxamide] | 5.30 to 6.30
COc1ccc(-n2c(C(=O)NCc3ccccc3)c3n(c2=O)CCN(C(=O)c2ccc(Br)c(Cl)c2)C3)nc1 [Example 110, N-benzyl-7-(4-bromo-3-chloro-benzoyl)-2-(5-methoxy-2-pyridyl)-3-oxo-6,8-dihydro-5H-imidazo[1,5-a]pyrazine-1-carboxamide] | 5.30 to 6.30
COCC1(N(C)C(=O)c2c3n(c(=O)n2-c2ccc(OC)cc2)CCN(C(=O)c2ccc(Cl)c(Cl)c2)C3)CC1 [Example 111, 7-(3,4-dichlorobenzoyl)-N-[1-(methoxymethyl)cyclopropyl]-2-(4-methoxyphenyl)-N-methyl-3-oxo-6,8-dihydro-5H-imidazo[1,5-a]pyrazine-1-carboxamide] | < 5.30
COc1ccc(-n2c(C(=O)NCc3ccccc3OC)c3n(c2=O)CCN(C(=O)c2ccc(Br)c(Cl)c2)C3)cc1 [Example 114, 7-(4-bromo-3-chloro-benzoyl)-2-(4-methoxyphenyl)-N-[(2-methoxyphenyl)methyl]-3-oxo-6,8-dihydro-5H-imidazo[1,5-a]pyrazine-1-carboxamide] | 6.30 to 7.00
COc1ccc(-n2c(C(=O)NCc3ccccc3OC)c3n(c2=O)CCN(C(=O)c2ccc(Cl)c(Cl)c2)C3)cc1 [Example 115, 7-(3,4-dichlorobenzoyl)-2-(4-methoxyphenyl)-N-[(2-methoxyphenyl)methyl]-3-oxo-6,8-dihydro-5H-imidazo[1,5-a]pyrazine-1-carboxamide] | 6.30 to 7.00
COc1ccc(-n2c(C(=O)NCc3ccc(F)cc3C)c3n(c2=O)CCN(C(=O)c2ccc(Br)c(Cl)c2)C3)cc1 [Example 116, 7-(4-bromo-3-chloro-benzoyl)-N-[(4-fluoro-2-methyl-phenyl)methyl]-2-(4-methoxyphenyl)-3-oxo-6,8-dihydro-5H-imidazo[1,5-a]pyrazine-1-carboxamide] | 6.30 to 7.00
COc1ccc(-n2c(C(=O)NCc3ccccc3)c3n(c2=O)CCN(c2ncnc4cc(Cl)ccc24)C3)cc1 [Example 117, N-benzyl-7-(7-chloroquinazolin-4-yl)-2-(4-methoxyphenyl)-3-oxo-6,8-dihydro-5H-imidazo[1,5-a]pyrazine-1-carboxamide] | < 5.30
O=C(NCc1ccccc1)c1c2n(c(=O)n1-c1ccc3occc3c1)CCN(C(=O)c1ccc(Cl)c(Cl)c1)C2 [Example 120, 2-(benzofuran-5-yl)-N-benzyl-7-(3,4-dichlorobenzoyl)-3-oxo-6,8-dihydro-5H-imidazo[1,5-a]pyrazine-1-carboxamide] | 5.30 to 6.30
O=C(NCc1ccccc1)c1c2n(c(=O)n1-c1ccc(OC(F)F)cc1)CCN(C(=O)c1ccc(Cl)c(Cl)c1)C2 [Example 121, N-benzyl-7-(3,4-dichlorobenzoyl)-2-[4-(difluoromethoxy)phenyl]-3-oxo-6,8-dihydro-5H-imidazo[1,5-a]pyrazine-1-carboxamide] | 5.30 to 6.30
Cc1ccc(-n2c(C(=O)NCc3ccccc3)c3n(c2=O)CCN(C(=O)c2ccc(Cl)c(Cl)c2)C3)cc1 [Example 122, N-benzyl-7-(3,4-dichlorobenzoyl)-3-oxo-2-(p-tolyl)-6,8-dihydro-5H-imidazo[1,5-a]pyrazine-1-carboxamide] | 5.30 to 6.30
Cc1ccc(-n2c(C(=O)NCc3ccccc3)c3n(c2=O)CCN(C(=O)c2ccc(Br)c(Cl)c2)C3)cc1 [Example 123, N-benzyl-7-(4-bromo-3-chloro-benzoyl)-3-oxo-2-(p-tolyl)-6,8-dihydro-5H-imidazo[1,5-a]pyrazine-1-carboxamide] | 6.30 to 7.00
COc1ccc(-n2c(C(=O)NCc3ccccc3)c3n(c2=O)CCN(C(=O)c2ccc(Cl)c(Cl)c2)C3)cc1C [Example 124, N-benzyl-7-(3,4-dichlorobenzoyl)-2-(4-methoxy-3-methyl-phenyl)-3-oxo-6,8-dihydro-5H-imidazo[1,5-a]pyrazine-1-carboxamide] | 5.30 to 6.30
COc1ccc(-n2c(C(=O)NCc3cccc(F)c3)c3n(c2=O)CCN(C(=O)c2ccc(Br)c(Cl)c2)C3)cc1 [Example 125, 7-(4-bromo-3-chloro-benzoyl)-N-[(3-fluorophenyl)methyl]-2-(4-methoxyphenyl)-3-oxo-6,8-dihydro-5H-imidazo[1,5-a]pyrazine-1-carboxamide] | 6.30 to 7.00
COc1ccc(-n2c(C(=O)NCc3cccc(C(N)=O)c3)c3n(c2=O)CCN(C(=O)c2ccc(Cl)c(Cl)c2)C3)cc1 [Example 126, N-[(3-carbamoylphenyl)methyl]-7-(3,4-dichlorobenzoyl)-2-(4-methoxyphenyl)-3-oxo-6,8-dihydro-5H-imidazo[1,5-a]pyrazine-1-carboxamide] | < 5.30
O=C(NCc1ccccc1)c1c2n(c(=O)n1-c1ccc(OC(F)(F)F)cc1)CCN(C(=O)c1ccc(Cl)c(Cl)c1)C2 [Example 131, N-benzyl-7-(3,4-dichlorobenzoyl)-3-oxo-2-[4-(trifluoromethoxy)phenyl]-6,8-dihydro-5H-imidazo[1,5-a]pyrazine-1-carboxamide] | < 5.30
COc1ccc(CN2C/C=C\Cn3c(c4n(c3=O)CCN(C(=O)c3ccc(Br)c(Cl)c3)C4)C2=O)cc1 [Example 132, (11Z)-4-(4-bromo-3-chloro-benzoyl)-14-[(4-methoxyphenyl)methyl]-4,7,9,14-tetrazatricyclo[7.6.0.0^2,7]pentadeca-1,11-diene-8.15-dione] | 6.30 to 7.00
O=C(c1ccc(Br)c(Cl)c1)N1CCn2c(c3n(c2=O)CCCN(CC2CC2)C3=O)C1 [Example 133, 4-(4-bromo-3-chloro-benzoyl)-13-(cyclopropylmethyl)-4,7,9,13-tetrazatricyclo[7.5.0.0^2,7]tetradec-1-ene-8.14-dione] | < 5.30
CC(C)CN1CCCn2c(c3n(c2=O)CCN(C(=O)c2ccc(Br)c(Cl)c2)C3)C1=O [Example 134, 4-(4-bromo-3-chloro-benzoyl)-13-isobutyl-4,7,9,13-tetrazatricyclo[7.5.0.0^2,7]tetradec-1-ene-8.14-dione] | < 5.30
COc1ccc(CN2CCCCn3c(c4n(c3=O)CCN(C(=O)c3ccc(Br)c(Cl)c3)C4)C2=O)cc1 [Example 135, 4-(4-bromo-3-chloro-benzoyl)-14-[(4-methoxyphenyl)methyl]-4,7,9,14-tetrazatricyclo[7.6.0.0^2,7]pentadec-1-ene-8.15-dione] | 5.30 to 6.30
O=C(NCc1ccccc1)c1c2n(c(=O)n1-c1ncccn1)CCN(C(=O)c1ccc(Cl)c(Cl)c1)C2 [Example 138, N-benzyl-7-(3,4-dichlorobenzoyl)-3-oxo-2-pyrimidin-2-yl-6,8-dihydro-5H-imidazo[1,5-a]pyrazine-1-carboxamide] | < 5.30
COc1ccc(-n2c(C(=O)NCc3ccc(Cl)cc3)c3n(c2=O)CCN(C(=O)c2ccc(Br)c(Cl)c2)C3)cc1 [Example 139, 7-(4-bromo-3-chloro-benozyl)-N-[(4-chlorophenyl)methyl]-2-(4-methoxyphenyl)-3-oxo-6,8-dihydro-5H-imidazo[1,5-a]pyrazine-1-carboxamide] | 6.30 to 7.00
COc1ccc(-n2c(C(=O)NCc3ccc(C(F)(F)F)cc3)c3n(c2=O)CCN(C(=O)c2ccc(Br)c(Cl)c2)C3)cc1 [Example 140, 7-(4-bromo-3-chloro-benzoyl)-2-(4-methoxyphenyl)-3-oxo-N-[[4-(trifluoromethyl)phenyl]methyl]-6,8-dihydro-5H-imidazo[1,5-a]pyrazine-1-carboxamide] | 5.30 to 6.30
COc1ccc(-n2c(C(=O)NC(C)c3ccc(F)cc3)c3n(c2=O)CCN(C(=O)c2ccc(Br)c(Cl)c2)C3)cc1 (centres unmarked) [Example 141, 7-(4-bromo-3-chloro-benzoyl)-N-[1-(4-fluorophenyl)ethyl]-2-(4-methoxyphenyl)-3-oxo-6,8-dihydro-5H-imidazo[1,5-a]pyrazine-1-carboxamide] | 6.30 to 7.00
COc1ccc(-n2c(C(=O)NCc3ccc(C(C)C)cc3)c3n(c2=O)CCN(C(=O)c2ccc(Br)c(Cl)c2)C3)cc1 [Example 142, 7-(4-bromo-3-chloro-benzoyl)-N-[(4-isopropylphenyl)methyl]-2-(4-methoxyphenyl)-3-oxo-6,8-dihydro-5H-imidazo[1,5-a]pyrazine-1-carboxamide] | 6.30 to 7.00
COc1ccc(-n2c(C(=O)NCc3ccc(OC)cc3OC)c3n(c2=O)CCN(C(=O)c2ccc(Br)c(Cl)c2)C3)cc1 [Example 143, 7-(4-bromo-3-chloro-benzoyl)-N-[(2,4-dimethoxyphenyl)methyl]-2-(4-methoxyphenyl)-3-oxo-6,8-dihydro-5H-imidazo[1,5-a]pyrazine-1-carboxamide] | > 7.00
